Measured values published in the OPERA property sets (Mansouri et al. 2018).

Conditions: not given

Structure (SMILES)	melting point [°C]	boiling point [°C]	log10 vapour pressure (mmHg)	log10 Koc (L/kg)	ready biodegradability	log10 Henry constant (atm·m³/mol)	log10 biodegradation half-life (days)	log10 Koa
O=C(Cl)CCCCCCCCC(=O)Cl	-2.5							
O=C(CCc1ccccc1)CCc1ccccc1	13.5	352						
CC(=O)N1CCCCC1	-13.4	226						
CC(C)(C)c1ccc2cc3ccccc3cc2c1	147		-6.19					
N#CCCS(=O)(=O)O.[Na+]	244							
CC(C)OC(=O)COc1ccc(Cl)cc1Cl	5		-3.63					
Brc1ccccc1Br	7.1	225						
CC=CCCCC			1.68					
Cc1ccccc1CO[C@H]1C[C@]2(C(C)C)CC[C@@]1(C)O2 (single isomer, unassigned)		313	-4.12	2.6				
Brc1cccc(I)c1	-9.3	252						
CC(C)NNC(C)C		125						
CCCC(C)C(CC)CC (stereo unspecified)		165						
Cc1cccc([N+](=O)[O-])c1C	15	240	-0.445		not readily biodegradable			
CCC(Br)C(Br)Br (stereo unspecified)		216						
Cc1ccc(C)c2ncccc12	4.5	266						
C=C(C)OC(C)=O	-92.9	97						
COC1=C(OC)C(=O)C(C)=CC1=O	59.5							
O=C(OC(=O)C(c1ccccc1)c1ccccc1)C(c1ccccc1)c1ccccc1	98							
Nc1cc(Cl)c(S(N)(=O)=O)cc1S(N)(=O)=O	254							
CCCNC(=O)COC(=O)c1ccccc1	89.5							
CC(=O)C(C)(C)O		140	0.792					
O=C(O)c1cc(O)cc(C(=O)O)c1	293							
C=COC(C)C	-140	55.5						
CC1(C)CC(=O)CC(C)(C)N1	36	205			not readily biodegradable			
Nc1ccc(Br)cc1	66.4			1.96				
FCC(F)(F)OC(F)F		43	2.57					

Structure (SMILES)	melting point [°C]	boiling point [°C]	log10 vapour pressure (mmHg)	log10 Koc (L/kg)	ready biodegradability	log10 Henry constant (atm·m³/mol)	log10 biodegradation half-life (days)	log10 Koa
O=C1C2CC=CCC2C(=O)N1SC(Cl)(Cl)Cl (stereo unspecified)	178		-7.05	2.3	not readily biodegradable			
CC(C)=CC(C)(C)C	-106	105	1.56					
CCCCCCCCC(=O)OCCCCC	-27							
Cc1cccc2sc3nncn3c12	187	275	-6.7	3.09				
CC(C)CCN(CCC(C)C)CCC(C)C		235						
CCCC1CCCCC1C (stereo unspecified)		176						
C1=C(c2ccccc2)CCCC1	-11	252						
CNC(=O)O/N=C1\[C@@H](Cl)[C@@H]2C[C@H](C#N)[C@H]1C2	144							
CC(=O)Oc1ccc(C2(c3ccc(OC(C)=O)cc3)Oc3ccccc3NC2=O)cc1	190							
Clc1ccc(Cl)c(-c2cc(Cl)c(Cl)c(Cl)c2Cl)c1						-4.64		
COC(C)(C)CCCC(C)C/C=C/C(C)=C/C(=O)OC(C)C (stereo unspecified)			-4.63					
Cc1ccc2cc3ccc4ccccc4c3cc2c1	183							
CN1CC(C(=O)O)CC1=O (stereo unspecified)	152							
CCOP(=O)(OCC)SCc1ccccc1				2.4				
Cc1cc(Cl)cc2c1C(=O)/C(=C1/Sc3cc(Cl)cc(C)c3C1=O)S2			-13.5					
C=CC(=O)OCCOCC	-47	174						
O=C(O)c1ccccc1C(=O)c1ccccc1	127	261						
C=COCCC(C)C		112						
O=C(O)C=Cc1ccc(Cl)cc1	249							
COc1cc(C#N)ccc1O	86							
Cc1ccc2cc3c(ccc4ccccc43)c3c2c1CC3	180		-7.37	6.1	not readily biodegradable			
O=C1Nc2ccc(Cl)cc2C(c2ccccc2Cl)=NC1O (stereo unspecified)	167							
N=C(N)N	50							
ClC1(Cl)C2(Cl)C3(Cl)C4(Cl)C(Cl)(Cl)C5(Cl)C3(Cl)C1(Cl)C5(Cl)C24Cl (stereo unspecified)			-6.1	6		-3.09		
N#Cc1cccc([N+](=O)[O-])c1	116							
Cc1ccoc1		66						

Structure (SMILES)	melting point [°C]	boiling point [°C]	log10 vapour pressure (mmHg)	log10 Koc (L/kg)	ready biodegradability	log10 Henry constant (atm·m³/mol)	log10 biodegradation half-life (days)	log10 Koa
O=C(O)c1cc(Br)cc(Br)c1O	228							
O[C@H]1C=CCCC1		164						
CC(C)CCC[C@H](C)O	-105	174						
Clc1cccc(Cl)c1-c1ccccc1						-3.64		
NNC(=O)c1cccc(Br)c1	158							
OC(O)C(Br)(Br)Br	53.5							
CC(=O)NC(=O)NC(C)=O	154							
COCc1ccccc1	-52.6	170	0.22					
CCCCCCCCNCCCCCCCC	35.5	298			readily biodegradable			
CC(C)(C)c1ccc(C(O)CCCN2CCC(C(O)(c3ccccc3)c3ccccc3)CC2)cc1 (stereo unspecified)	147							
CCOC(=O)C(CC)(CC)C(C)=O		216						
OC1c2ccccc2CCc2ccccc21	92							
CCCCOC(=O)c1ccccc1	-22.4	250	-2	2.1				
CCCC(N)C(=O)O (racemic)	305							
Cc1ccccc1OC(=O)c1ccccc1		309						
c1cc[nH]c1	-23.4	130	0.922		readily biodegradable	-4.74		
O=C(n1ccnc1)n1ccnc1	119							
CCCCCCCCCCCCCCI			-3.85					
FC(F)(F)C(F)(F)Br		-21						
CN1CCN(C(=O)OC2C3=C(SCCS3)C(=O)N2c2ccc3ccc(Cl)nc3n2)CC1 (stereo unspecified)	280							
FC(Cl)Br (stereo unspecified)	-115	36						
CCCCCCCC(=O)CC	2.5	203						
Fc1c(F)c(F)c(-c2c(F)c(F)c(F)c(F)c2F)c(F)c1F	67.5	206						
CCCCCCCCCCCC[N+](C)(C)Cc1ccccc1					not readily biodegradable			
CC1(C)OC(=O)CC(=O)O1	94							
Nc1ccc(S(=O)(=O)NC(=O)c2ccccc2)cc1	182							

Structure (SMILES)	melting point [°C]	boiling point [°C]	log10 vapour pressure (mmHg)	log10 Koc (L/kg)	ready biodegradability	log10 Henry constant (atm·m³/mol)	log10 biodegradation half-life (days)	log10 Koa
C=CCF		-3						
CCCCCCCCCCCCCCCCCCCC	36.8	343	-5.34		readily biodegradable		1.4	
CC(=O)NBr	104							
CC(Cl)(Cl)Cl	-30.4	74	2.09	1.95	not readily biodegradable	-1.76		2.7
c1ccc(C2(c3ccccc3)CC2C2=NCCN2)cc1 (stereo unspecified)	104							
CCOC(=O)[C@@H](C)Br		160						
CNC(=O)COC(=O)c1ccccc1	112							
CCC(=O)c1ccco1	28							
COc1c(C(C)(C)C)cc([N+](=O)[O-])c(C)c1[N+](=O)[O-]	85							
c1ccc2nn(C3CCCCC3)nc2c1	46.5							
O=Nc1ccc(Nc2ccccc2)cc1	143	292			not readily biodegradable			
O=C(O)CN(CCO)CC(=O)O	178							
FC(F)(F)C(F)(F)C(F)(F)C(F)(F)C(F)(F)C(F)(F)C(F)(F)C(F)(F)C(F)(F)C(F)(F)Br		198						
C=C(C)C(=O)OCCCCCCCCCCCCCCCCCC					readily biodegradable			
NS(=O)(=O)c1ccc(S(=O)(=O)CCCCO)cc1	134							
CCOP(=O)([O-])C(N)=O.[NH4+]	175							
C=CC(Cl)(Cl)Cl	-30	114						
CCCCCCCCCCCCCCCCC1CCCCC1	33.6	385						
CNC(=O)Oc1ccccc1OC(C)C	87		-5.01	1.67	readily biodegradable			
BrCC(Br)c1ccccc1 (stereo unspecified)	75		-1.97					
CCCCCCOC(=O)CCC	-78	208						
N#Cc1c(Cl)cccc1Cl	144	270	-3.18	2.5				
COc1cc(O)c2c(c1)OC(c1ccc(O)cc1)CC2=O (stereo unspecified)	152							
c1ccc(-c2ccc(-c3ccccc3)o2)cc1	91	344						
CC(C)(OOC(C)(C)c1ccccc1)c1ccccc1		396			not readily biodegradable			
CCCCCCC(=O)CCCC	2	227						

Structure (SMILES)	melting point [°C]	boiling point [°C]	log10 vapour pressure (mmHg)	log10 Koc (L/kg)	ready biodegradability	log10 Henry constant (atm·m³/mol)	log10 biodegradation half-life (days)	log10 Koa
Nc1c(I)cc(I)c(C(=O)N(CCC(=O)O)c2ccccc2)c1I	134							
CCCC(C)(C)C	-124	79.2	2.02				0.845	
FCI		53.4						
CC1=C(C)C(=O)C=CC1=O	55							
CCc1ccc(C(c2ccc(CC)cc2)C(Cl)Cl)cc1	56							
Cn1c(=O)c2c(ncn2CC(O)CO)n(C)c1=O (stereo unspecified)	162							
C#CC(C)(O)C(C)C (stereo unspecified)		134						
COc1ccc(C)c(C)c1		202						
Cc1cccc(OCC(O)CNC(C)C)c1 (stereo unspecified)	76							
Cc1cc(-c2ccccc2)ccc1N	43							
CC(Br)(CBr)COc1c(Br)cc(Br)cc1Br (stereo unspecified)					not readily biodegradable			
Ic1ccc(-c2ccccc2)cc1	114	320						
O=P(OC(Cl)CCCl)(OC(Cl)CCCl)OC(Cl)CCCl (stereo unspecified)	26.7							
Cc1ccc([N+](=O)[O-])cc1O					not readily biodegradable			
O=[N+]([O-])c1cc(F)ccc1F	-11.7	206						
CCCCl	-123	46.5	2.54					2.24
COc1ccc(C(=O)OC(=O)c2ccc(OC)cc2)cc1	94.5							
C[C@@H](Br)C(=O)Cl		132						
O=C1NCCN1c1ncc([N+](=O)[O-])s1	261							
CC(C)c1ccc(C(C)C)c(C(C)C)c1		244						
Cc1ccc2cccc(O)c2n1	73.8	267						
Cc1ccc2sc(C)nc2c1	38							
CC(C)(O)C(C)(C)O	43							
CCCCCCCCC(=O)Cl	-60.5	215						
Oc1cccc(Cl)c1Cl	58	206	-1.24	2.66	not readily biodegradable			
N#Cc1c(Cl)c(Cl)c(Cl)c(C#N)c1Cl	250	350	-6.24	3.26	readily biodegradable	-5.7		

Same assay, conditions: fish

Structure (SMILES)	log10 BCF	log10 biotransformation half-life (days)
O=C1C2CC=CCC2C(=O)N1SC(Cl)(Cl)Cl (stereo unspecified)	1.98	
ClC1(Cl)C2(Cl)C3(Cl)C4(Cl)C(Cl)(Cl)C5(Cl)C3(Cl)C1(Cl)C5(Cl)C24Cl (stereo unspecified)	4.31	1.8
CC(Cl)(Cl)Cl	0.7	-1.39
CC(C)(OOC(C)(C)c1ccccc1)c1ccccc1	2.62	-0.01
Cc1ccc([N+](=O)[O-])cc1O	0.85	-1.24
Oc1cccc(Cl)c1Cl	1.13	
N#Cc1c(Cl)c(Cl)c(Cl)c(C#N)c1Cl	1.8	0.27
